Values quoted from earlier work as cited in patent publication US20140228364A1, “Ophthalmic Compositions Comprising Prostaglandin F2 Alpha Derivatives and Hyaluronic Acid” (priority 2011, published 2014).

SMILES | Solubility in water
CCCCC[C@H](O)/C=C/[C@H]1[C@H](O)CC(=O)[C@H]1C/C=C\CCCC(=O)O [8-isoprostaglandin E2] | almost insoluble in water
CC(C)OC(=O)CCC/C=C\C[C@@H]1[C@@H](CC[C@@H](O)CCc2ccccc2)[C@H](O)C[C@@H]1O [Latanoprost, isopropyl-(Z)-7-[(1R,2R,3R,5S)-3,5-dihydroxy-2-[(3R)-3-hydroxy-5-phenylpentyl]cyclopentyl]-5-heptenoate] | almost insoluble in water
CCNC(=O)CCC/C=C\C[C@@H]1[C@@H](/C=C/[C@@H](O)CCc2ccccc2)[C@H](O)C[C@@H]1O [bimatoprost] | almost insoluble in water
CC(C)OC(=O)CCC/C=C\C[C@@H]1[C@@H](/C=C/C(F)(F)COc2ccccc2)[C@H](O)C[C@@H]1O [tafluprost] | almost insoluble in water
CC(C)OC(=O)CCC/C=C\C[C@@H]1[C@@H](/C=C/[C@@H](O)COc2cccc(C(F)(F)F)c2)[C@H](O)C[C@@H]1O [travoprost, 20-ethyl prostaglandin F2α-(+)-fluprostenol isopropyl ester] | almost insoluble in water
CCCCCCCC(=O)CC[C@@H]1[C@@H](C/C=C\CCCC(=O)OC(C)C)[C@@H](O)C[C@H]1O [unoprostone isopropyl, 13,14-dihydro-20-ethyl-15-ketoprostaglandin F2α-isopropylester] | almost insoluble in water
